Measured values taken from ChEMBL document CHEMBL1201862, “PubChem BioAssay data set” (2004).
Calls of active or inactive are those of the source.

What was measured:
[1] = molecular target: Eukaryotic translation initiation factor 4E (Mus musculus, UniProt P63073); experiment: blockers of eIF4G binding by eIF4E – biochemical, TR-FRET, dose response (AID 855); format: functional;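 also: potency for disrupting eIF4E binding to eIF4GI seen as loss of FRET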
[2] = A549 cell cytotoxicity, dose response, cytotoxicity control, plate reader, cherry-pick, antagonist series (AID 743412); format: functional, cell-based
[3] = blockers of bursicon-stimulated LGR2 cAMP reporter – cell-based, HEK293, CRE-luciferase reporter, cherry pick, set 2, dose response (AID 743343); format: functional;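 also: transfected cells were stimulated with diluted bursicon conditioned medium after compound addition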
[4] = blockade of melanocortin 4 receptor signaling – cell-based, plate reader, cherry pick, counter-screen for LGR2 antagonist project, dose response (AID 743444); format: functional;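 also: transfected HEK 293 cells stimulated with alpha-MSH peptide; potency of inhibitors of the alpha-MSH evoked signal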
[5] = molecular target: T1, Long-chain-fatty-acid--AMP ligase FadD28 (Mycobacterium tuberculosis, UniProt P9WQ59); experiment: Fluorescence polarization aasay to screen for inhibitors that compete for the binding of FadD28 to a bisubstrate Measured in Biochemical System Using Plate Reader - 2147-01_Inhibitor_Dose_CherryPick_Activity.; format: functional, Mycobacterium tuberculosis H37Rv
T1 sequence (P9WQ59 whole entry): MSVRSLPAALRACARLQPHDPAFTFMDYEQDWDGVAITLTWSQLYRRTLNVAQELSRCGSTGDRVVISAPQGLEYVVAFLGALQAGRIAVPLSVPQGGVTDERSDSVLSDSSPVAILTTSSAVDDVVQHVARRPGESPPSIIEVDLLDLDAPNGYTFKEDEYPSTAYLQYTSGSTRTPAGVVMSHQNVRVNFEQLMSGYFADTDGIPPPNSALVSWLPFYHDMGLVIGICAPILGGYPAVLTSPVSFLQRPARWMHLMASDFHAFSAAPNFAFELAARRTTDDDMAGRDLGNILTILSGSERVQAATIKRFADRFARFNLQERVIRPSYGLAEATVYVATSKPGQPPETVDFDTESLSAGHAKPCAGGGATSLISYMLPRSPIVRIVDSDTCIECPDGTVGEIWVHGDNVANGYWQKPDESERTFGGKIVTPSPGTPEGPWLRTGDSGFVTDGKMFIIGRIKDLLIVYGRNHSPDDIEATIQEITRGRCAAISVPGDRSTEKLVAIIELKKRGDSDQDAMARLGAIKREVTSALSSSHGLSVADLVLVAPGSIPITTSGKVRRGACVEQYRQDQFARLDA

[6] = cells; format: functional, cell-based
[7] = cells; format: functional, cell-based; remark: listed apart in the source
[8] = test system: Escherichia coli; experiment: microbe, parasite or virus in culture
[9] = test system: BJ; experiment: cells; format: functional, cell-based; conditions: Homo sapiens
[10] = alpha-synuclein stem-loop luciferase translation blockers – H4 neuroglioma cells, luminescence, confirmation (AID 1988); format: functional, cell-based
[11] = molecular target: T2, Protein RecA (Mycobacterium tuberculosis, UniProt P9WHJ3); experiment: Fluorescence Cell-Free Homogeneous Dose Retest to Identify Inhibitors of RecA-Intein Splicing Activity. [Related pubchem assays (depositor defined):AID2097, AID2223, AID489010, AID492950]; format: functional
T2 sequence (P9WHJ3 whole entry): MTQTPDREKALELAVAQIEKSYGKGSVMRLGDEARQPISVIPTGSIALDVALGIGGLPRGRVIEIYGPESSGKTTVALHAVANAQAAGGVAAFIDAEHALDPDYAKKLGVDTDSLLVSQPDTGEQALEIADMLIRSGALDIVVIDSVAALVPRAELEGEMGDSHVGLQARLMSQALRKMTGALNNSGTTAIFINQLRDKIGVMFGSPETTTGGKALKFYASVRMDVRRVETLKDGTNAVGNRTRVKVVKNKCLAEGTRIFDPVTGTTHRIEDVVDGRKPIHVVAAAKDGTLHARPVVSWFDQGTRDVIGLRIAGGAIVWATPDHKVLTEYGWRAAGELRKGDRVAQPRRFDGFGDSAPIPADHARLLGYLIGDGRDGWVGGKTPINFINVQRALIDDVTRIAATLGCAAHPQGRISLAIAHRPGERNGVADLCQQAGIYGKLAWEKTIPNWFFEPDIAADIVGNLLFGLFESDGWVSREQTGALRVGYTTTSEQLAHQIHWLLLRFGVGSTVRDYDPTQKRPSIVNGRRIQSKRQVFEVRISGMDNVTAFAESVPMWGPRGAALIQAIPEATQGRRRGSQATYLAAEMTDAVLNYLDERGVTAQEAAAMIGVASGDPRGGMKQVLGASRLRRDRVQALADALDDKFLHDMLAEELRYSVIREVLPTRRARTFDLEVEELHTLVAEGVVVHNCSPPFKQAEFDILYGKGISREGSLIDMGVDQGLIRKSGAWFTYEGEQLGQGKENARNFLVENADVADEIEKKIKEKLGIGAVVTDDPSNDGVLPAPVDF

[12] = test system: BJ; experiment: BJ-TERT-LT-ST fibroblast viability loss – cell-based, RAS-independent, luminescence, dose response (AID 1935); format: functional; conditions: Homo sapiens;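 also: BJ fibroblasts immortalized with TERT plus LT and ST oncogenes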
[13] = Luminescence Cell-Based Dose Response HTS to Identify Inhibitors of 5'UTR Stem-Loop Driven Prion Protein mRNA Translation in H4 Neuroglioblastoma Cells. [Related pubchem assays: 1827 (Project Summary), 1813 (Primary HTS)]; format: functional
[14] = test system: BJ; experiment: BJ-TERT fibroblast viability loss – cell-based, RAS-independent, luminescence, dose response (AID 1933); format: functional; conditions: Homo sapiens
[15] = test system: INS1; experiment: INS-1E survival protection against cytokine death – cell-based, luminescence, retest, dose response (AID 449756); format: functional; conditions: Rattus norvegicus;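 also: cell death triggered by IL-1 beta plus TNF-alpha plus IFN-gamma mixture; protective hits raise ATP signal compared with cytokine alone wells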
[16] = molecular target: T3, COUP transcription factor 2 (Homo sapiens, UniProt P24468); experiment: Luminescence-based cell-based high throughput dose response assay to identify inhibitors of COUP-TFII (NR2F2).; format: functional;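 also: HEK293 cells transiently cotransfected with COUP-TFII expression vector and reporter; luciferase reporter luminescence driven by COUP-TFII from the pX2-168 reporter plasmid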
T3 sequence (P24468 whole entry): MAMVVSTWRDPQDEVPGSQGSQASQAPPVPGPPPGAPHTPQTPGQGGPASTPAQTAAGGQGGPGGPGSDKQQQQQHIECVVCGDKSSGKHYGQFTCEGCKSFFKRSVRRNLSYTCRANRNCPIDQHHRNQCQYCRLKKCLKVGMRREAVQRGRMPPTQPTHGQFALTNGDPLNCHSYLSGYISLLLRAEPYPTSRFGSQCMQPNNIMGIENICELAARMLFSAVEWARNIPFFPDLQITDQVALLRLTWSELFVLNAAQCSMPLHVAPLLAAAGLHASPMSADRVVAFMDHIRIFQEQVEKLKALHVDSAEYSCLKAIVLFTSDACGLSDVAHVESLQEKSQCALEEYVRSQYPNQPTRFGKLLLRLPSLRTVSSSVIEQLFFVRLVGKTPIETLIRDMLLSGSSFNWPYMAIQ

[17] = molecular target: T4, Replicative DNA helicase DnaB (Mycobacterium tuberculosis, UniProt P9WMR3); experiment: DnaB intein splicing inhibitors, dose response, biochemical, cell-free fluorescence (AID 449749); format: functional
T4 sequence (P9WMR3 whole entry): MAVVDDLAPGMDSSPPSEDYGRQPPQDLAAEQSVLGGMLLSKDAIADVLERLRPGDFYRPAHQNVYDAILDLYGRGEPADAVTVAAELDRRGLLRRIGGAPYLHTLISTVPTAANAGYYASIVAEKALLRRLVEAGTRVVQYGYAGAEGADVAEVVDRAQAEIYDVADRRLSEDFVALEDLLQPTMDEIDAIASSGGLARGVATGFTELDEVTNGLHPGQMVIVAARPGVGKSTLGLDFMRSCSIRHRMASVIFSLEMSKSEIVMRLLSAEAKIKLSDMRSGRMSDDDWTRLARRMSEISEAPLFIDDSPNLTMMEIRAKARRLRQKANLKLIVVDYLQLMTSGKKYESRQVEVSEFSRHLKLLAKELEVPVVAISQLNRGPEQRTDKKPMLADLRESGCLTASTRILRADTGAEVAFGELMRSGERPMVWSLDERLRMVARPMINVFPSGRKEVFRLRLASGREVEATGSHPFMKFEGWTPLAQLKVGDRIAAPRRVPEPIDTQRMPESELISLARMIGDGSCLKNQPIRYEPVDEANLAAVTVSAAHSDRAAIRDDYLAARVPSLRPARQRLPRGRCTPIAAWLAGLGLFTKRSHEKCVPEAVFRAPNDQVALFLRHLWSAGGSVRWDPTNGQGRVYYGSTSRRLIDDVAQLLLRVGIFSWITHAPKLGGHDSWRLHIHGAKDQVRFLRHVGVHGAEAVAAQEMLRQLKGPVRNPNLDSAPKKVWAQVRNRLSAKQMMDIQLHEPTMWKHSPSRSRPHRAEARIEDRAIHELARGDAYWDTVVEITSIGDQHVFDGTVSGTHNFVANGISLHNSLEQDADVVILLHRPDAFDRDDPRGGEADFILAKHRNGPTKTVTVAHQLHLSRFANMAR

[18] = luciferase reporter signal suppression in cells – H4 neuroglioma cells, luminescence, dose response (AID 1990); format: functional, cell-based
[19] = DRD fibroblast viability loss – cell-based, non-viral oncogenic, luminescence, dose response (AID 1934); format: functional; conditions: Homo sapiens
[20] = general cell-killing toxicity readout – plate reader, dry powder samples, cytotoxicity control for PAX8 inhibitor project, dose response (AID 743021); format: functional, cell-based
[21] = molecular target: Luciferin 4-monooxygenase (Photinus pyralis, UniProt P08659); experiment: inhibition of purified Photinus pyralis luciferase – biochemical, luminescence, dose response (AID 1891)
Chain of Luciferin 4-monooxygenase (P08659 whole entry): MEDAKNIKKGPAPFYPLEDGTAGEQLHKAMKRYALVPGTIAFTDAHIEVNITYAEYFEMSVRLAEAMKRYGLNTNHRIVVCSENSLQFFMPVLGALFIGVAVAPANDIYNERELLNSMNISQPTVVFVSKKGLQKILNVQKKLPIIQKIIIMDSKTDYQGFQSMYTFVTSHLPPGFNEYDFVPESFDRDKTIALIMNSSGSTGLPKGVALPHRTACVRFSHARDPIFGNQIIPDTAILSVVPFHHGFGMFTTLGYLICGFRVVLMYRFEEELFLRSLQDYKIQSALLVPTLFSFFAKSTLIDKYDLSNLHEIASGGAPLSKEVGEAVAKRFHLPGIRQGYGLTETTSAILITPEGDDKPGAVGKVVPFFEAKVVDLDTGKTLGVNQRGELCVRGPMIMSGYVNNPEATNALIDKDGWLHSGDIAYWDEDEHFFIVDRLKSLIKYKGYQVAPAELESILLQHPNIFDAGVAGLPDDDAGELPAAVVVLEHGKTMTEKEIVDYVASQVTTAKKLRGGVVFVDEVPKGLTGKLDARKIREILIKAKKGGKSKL

[22] = Luminescence Cell-Based Dose Confirmation HTS to Identify Inhibitors of Platelet Dense Granule Release. [Related pubchem assays: 1663 (Primary HTS), 1678 (Summary of Project)]; format: functional

Chain of Eukaryotic translation initiation factor 4E (P63073 whole entry): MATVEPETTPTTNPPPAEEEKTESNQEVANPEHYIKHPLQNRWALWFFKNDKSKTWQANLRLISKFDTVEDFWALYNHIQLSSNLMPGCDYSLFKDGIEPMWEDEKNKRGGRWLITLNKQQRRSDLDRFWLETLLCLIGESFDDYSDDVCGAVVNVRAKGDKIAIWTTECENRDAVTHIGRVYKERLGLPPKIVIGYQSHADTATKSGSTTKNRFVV

## Cc1nc(C(C)(C)O)n(-c2ccccc2)n1
[1]
  IC50: > 64 µM (inactive)

## CCn1c(SCC(=O)Nc2ccccc2OC)nc2ccccc2c1=O
[1]
  IC50: > 64 µM (inactive)

## Cc1ccc2[nH]c(-c3ccc(NC(=O)C4CCCO4)cc3)nc2c1 (stereo not drawn)
[2]
  AC50: > 52 µM (inactive)
[3]
  AC50: 5.48 µM (active)
[4]
  AC50: 11.9 µM (active)

## Cc1cccc(NC(=O)CN2C(=O)S/C(=C\c3cc(C)n(C)c3C)C2=O)c1
[5]
  AC50: 0.381 µM (active)

## Cc1cc(C)c(NS(=O)(=O)c2ccc3c(c2)NC(=O)CCS3)c(C)c1
[6]
  EC50: 58.1 µM (active)
[7]
  EC50: > 350 µM (not active)
[8]
  AC50: 23.1 µM (active)

## C=CCn1cc(CN2CCC(C(=O)Nc3ccc(Oc4cccnc4)cc3)CC2)c(C)n1
[5]
  AC50: 21 µM (active)

## N#CC(C#N)=C(Nc1ccc(F)cc1)SCc1cccc(Br)c1
[9]
  EC50: 22.2 µM (active)
[10]
  EC50: 13.5 µM (active)
[11]
  EC50: 2.38 µM (active)
[12]
  EC50: 22.5 µM (active)
[13]
  EC50: 0.272 µM (active)
[14]
  EC50: 11.8 µM (inconclusive)
[15]
  AC50: 2.92 µM (active)
[16]
  IC50: 11.3 µM (inactive)
[17]
  AC50: 3.08 µM (active)
[18]
  EC50: 11.2 µM (active)
[19]
  EC50: 21.7 µM (active)

## COc1cc(NC(=O)C2CCCCC2)c(OC)cc1NC(=O)c1ccco1
[8]
  AC50: 30.6 µM (active)

## Cc1onc(-c2ccccc2)c1C(=O)Nc1nc(-c2cc(F)ccc2F)cs1
[8]
  AC50: 38.9 µM (active)

## O=c1cc(Nc2ccc3c(c2)OCCO3)[nH]c(=O)n1C1CCCCC1
[5]
  AC50: 61.1 µM (active)

## COc1cccc(CC(=O)Nc2nc3c(s2)C(=O)CC(C)(C)C3)c1
[20]
  AC50: 41.9 µM (active)
[21]
  EC50: > 112 µM (not active)
[22]
  EC50: > 112 µM (not active)

## COc1cccc2sc(NN)nc12
[5]
  AC50: > 100 µM (inactive)
